From patent US11065240B2, “Drug combinations to treat multiple myeloma” (Exelixis, Inc., priority 2014, dated 2021)

Legend:
[1] = test system: 5TGM1 mouse myeloma cells; assay: 5TGM1 murine multiple myeloma model, study 2: overall survival, alone or in combination; type: in vivo; conditions: for prolongation of overall survival (OS) compared to vehicle, statistical significance / median survival time: bortezomib 0.5 mg/kg ip twice a week, cabozantinib 10 mg/kg PO QD; for median survival time: vehicle 36 d, FIG. 1
Procedure: Cabozantinib (XL184) is obtained from the Exelixis in powder form. It is dissolved in sterile water to a concentration of 1 mg/ml for dosing at 10 mg/kg or 30 mg/kg. The dosing solution is prepared daily within one hour before dosing. The undissolved test compound will be stored at ambient or room temperature in a dry environment such as in a dessicator. The test compound is administered daily by oral gavage.
Bortezomib is obtained from LC Laboratories (Boston, Mass., USA) in powder form and dissolved in EtOH. The stock solution is stored at −20° C. The bortezomib dosing solutions are prepared fresh for every dosing as follows: 25 μl of the stock solution of 25 mg/ml of bortezomib (LC Laboratories, Boston, Mass., USA) in EtOH and 25 μl of EtOH is diluted in 3.61 ml of 0.9% NaCl to obtain the concentration of 0.17 mg/ml. The dosing volume is 3 ml/kg, resulting in the dose 0.5 mg/kg. Bortezomib is administered intraperitoneally twice a week.
5TGM1 mouse multiple myeloma cells are obtained from the Department of Molecular Medicine, University of Texas Health Science Center at San Antonio. Cell culturing is performed according to standard procedures. 5TGM1 mouse myeloma cells (2×10^6 cells in 0.1 ml of PBS) are inoculated into the tail vein of the mice at day 0. Viability of the cells will be determined before and after the inoculations. Cancer cell inoculation will cause the mice to develop a bone disease typical for multiple myeloma.
Statistical analysis will be performed with statistical software R (version 2.14.0 or newer, www.r-project.org) or OriginPro (version 8.6 or newer, OriginLab, Northampton, Mass., USA). The mean and standard deviation of each parameter will be determined. All statistical analyses will be performed as two-sided tests. Normal distribution and homogeneity of variance will be checked before further analyses. In case of violating these assumptions, either log transformation or other appropriate transformation (e.g. square root, reciprocal) will be applied. If the assumptions are fulfilled as such or after transformation, Oneway ANOVA will be used for end-point parameters to assess whether the values obtained between groups are statistically different (with p<0.05) followed by Tukey test for comparison against the control group. If the assumptions are not fulfilled even after the transformations described above, rank-transformation will be applied and the non-parametric Kruskal-Wallis test followed by Mann-Whitney U-test will be used. Linear mixed effects model will be used for repeated measurements like biochemical markers.
Female C57BL/KaLwRij mice were allocated to treatment groups (n=15 per group) with equivalent average body weights. Four experimental groups were utilized in each of 2 studies: a vehicle control group, and groups receiving single agent bortezomib (0.5 mg/kg ip twice a week) or cabozantinib (10 mg/kg, PO QD). Study 1 also included a higher dose cabozantinib group (30 mg/kg, PO QD), and study 2 included a combination group: bortezomib (0.5 mg/kg ip twice a week) plus cabozantinib (10 mg/kg, PO QD). […]
On day 0, animals were inoculated with 5TGM1 mouse myeloma cells by IV administration. […] Body weights were determined twice a week and blood samples were collected on days—1, 15, 22, and 34 for analysis of paraprotein (IgG2b) and TRACP 5b. In study 1 the development of osteolytic lesions was detected by radiography at the end of the study. […]

[2] = test system: 5TGM1 mouse myeloma cells; assay: 5TGM1 murine multiple myeloma model, study 1: bone lesions and tumor burden; type: in vivo; conditions: for bone protective properties/effects: cabozantinib 10 or 30 mg/kg PO QD; for frequency of soft tissue lesions: cabozantinib both doses (10 and 30 mg/kg PO QD)
Procedure: Cabozantinib (XL184) is obtained from the Exelixis in powder form. It is dissolved in sterile water to a concentration of 1 mg/ml for dosing at 10 mg/kg or 30 mg/kg. The dosing solution is prepared daily within one hour before dosing. The undissolved test compound will be stored at ambient or room temperature in a dry environment such as in a dessicator. The test compound is administered daily by oral gavage. Bortezomib is obtained from LC Laboratories (Boston, Mass., USA) in powder form and dissolved in EtOH. The stock solution is stored at -20° C. The bortezomib dosing solutions are prepared fresh for every dosing as follows: 25 μl of the stock solution of 25 mg/ml of bortezomib (LC Laboratories, Boston, Mass., USA) in EtOH and 25 μl of EtOH is diluted in 3.61 ml of 0.9% NaCl to obtain the concentration of 0.17 mg/ml. The dosing volume is 3 ml/kg, resulting in the dose 0.5 mg/kg. Bortezomib is administered intraperitoneally twice a week. 5TGM1 mouse multiple myeloma cells are obtained from the Department of Molecular Medicine, University of Texas Health Science Center at San Antonio. Cell culturing is performed according to standard procedures. 5TGM1 mouse myeloma cells (2×10^6 cells in 0.1 ml of PBS) are inoculated into the tail vein of the mice at day 0. Viability of the cells will be determined before and after the inoculations. Cancer cell inoculation will cause the mice to develop a bone disease typical for multiple myeloma. Blood samples will be collected from the saphenous vein before the inoculation of cancer cells, at days 15, 22, 35 and at sacrifice. The serum samples will be prepared within one hour of sampling, and stored at -70° C. Serum paraprotein IgG2b will be analyzed using mouse IgG2b ELISA quantitation kit (Bethyl Laboratories Inc, Montgomery, Tex., USA). Serum […] activity and PINP concentration will be analyzed using Mouse TRAP and Mouse PINP kits (IDS, Boldon, UK). The development of the myeloma bone disease is monitored by x-ray radiography at day 35. Animals will be anesthethized by isoflurane and x-rayed in a prone position with the Faxitron Specimen Radiographic System MX-20 D12 (Faxitron Corp. Illinois, USA) using Faxitron Dicom 3.0-software. At least one radiograph (both hind limbs) per animal will be taken on each x-ray occasion (31 kV, 10 seconds, magnification 2×). The lesion number and lesion area in hind limbs will be determined from the images with MetaMorph image analysis software. Statistical analysis will be performed with statistical software R (version 2.14.0 or newer, www.r-project.org) or OriginPro (version 8.6 or newer, OriginLab, Northampton, Mass., USA). The mean and standard deviation of each parameter will be determined. All statistical analyses will be performed as two-sided tests. Normal distribution and homogeneity of variance will be checked before further analyses. In case of violating these assumptions, either log transformation or other appropriate transformation (e.g. square root, reciprocal) will be applied. If the assumptions are fulfilled as such or after transformation, Oneway ANOVA will be used for end-point parameters to assess whether the values obtained between groups are statistically different (with p<0.05) followed by Tukey test for comparison against the control group. If the assumptions are not fulfilled even after the transformations described above, rank-transformation will be applied and the non-parametric Kruskal-Wallis test followed by Mann-Whitney U-test will be used. Linear mixed effects model will be used for repeated measurements like biochemical markers. Female C57BL/KaLwRij mice were allocated to treatment groups (n=15 per group) with equivalent average body weights. Four experimental groups were utilized in each of 2 studies: a vehicle control group, and groups receiving single agent bortezomib (0.5 mg/kg ip twice a week) or cabozantinib (10 mg/kg, PO QD). […]

[3] = study 1, bortezomib 0.5 mg/kg ip twice a week
[4] = study 1, 30 mg/kg PO QD, radiography at end of study
[5] = study 1, both the 10 and 30 mg/kg doses PO QD

Row | Structure (SMILES) | prolongation of overall survival (OS) compared to vehicle, statistical significance [1] | median survival time [1] | bone protective properties/effects [2, 3] | frequency of soft tissue lesions [2, 3] | serum IgG2b levels ([2]; study 1, female C57BL/KaLwRij mice, bortezomib 0.5 mg/kg ip twice a week, vs vehicle) | prolongation of overall survival (conclusion, comparator not stated) ([1]; conclusions) | bone-protective and anti-tumor effects (conclusion) ([2]; murine model of MM, conclusions) | mean area of osteolytic lesions [2, 4] | total area of osteolytic lesions [2, 4] | necrotic tumor area in bone ([2]; study 1, 10 and 30 mg/kg PO QD) | start of the rise in serum IgG2b ([2]; study 1, both cabozantinib-treated groups (10 and 30 mg/kg), vs vehicle control) | relative IgG2b at sacrifice ([2]; study 1, both cabozantinib-treated groups, vs vehicle control) | osteoclast counts at the tumor-bone interface [2, 5] | serum TRACP 5b values [2, 5] | relative bone area ([2]; study 1, histomorphometry, vs control)
1 | CC(C)C[C@H](NC(=O)[C@H](Cc1ccccc1)NC(=O)c1cnccn1)B(O)O [bortezomib, reference compound] | not | 43 days | did not show bone protective properties | decreased | reduced | – | – | – | – | – | – | – | – | – | –
2 | COc1cc2nccc(Oc3ccc(NC(=O)C4(C(=O)Nc5ccc(F)cc5)CC4)cc3)c2cc1OC [cabozantinib, N-(4-{[6,7-bis(methyloxy)quinolin-4-yl]oxy}phenyl)-N′-(4-fluorophenyl)cyclopropane-1,1-dicarboxamide] | statistically significant | 48 days | exhibited bone protective effects | decreased | – | statistically-significant prolongation | showed both bone-protective and anti-tumor effects | reduced | reduced | dose dependently increased | started earlier than vehicle control | a significant difference was not observed | reduced | reduced | did not differ from control
